Assay results from US12691129B2, “Use of carotenoids in the treatment of senescence-related diseases” (ALGAKTIV, S.L., priority 2019, dated 2026).
Like-named read-outs stand apart in the source and are kept apart here.

Columns and labels:
COL1A1 in LX2 cells = experiment: COL1A1 expression in LX2 cells (qPCR, western blot); type: cell-based, human; settings: 10 μM, vs vehicle; for inhibition of COL1A1 transcription: quantitative PCR
Protocol: (§1) To evaluate the effect of amarouciaxanthin A on HSC activation, the immortalized human cell line LX2 was used. Additionally, primary HSC were extracted from cirrhotic rats which had been subjected to carbon tetrachloride inhalation. In both cases, cells were cultured for 24 h before adding the compound. After that, either amarouciaxanthin A at 10 μM or the vehicle (DMSO) was added to the culture. Cells were harvested at 24 and 72 h post treatment and were lysed to analyze fibrotic biomarkers. Gene transcription was determined by quantitative PCR at 24 and 72 h and protein expression by western blotting at 72 h. α-smooth muscle actin (α-SMA) was analyzed in rat HSC. Collagen I al (COL1A1), which is the main component of the extracellular matrix, was analyzed in LX2.

[1] = test system: α-SMA in HSC from cirrhotic rats; experiment: α-SMA expression in primary HSC from cirrhotic rats (qPCR, western blot); type: cell-based, rat; settings: 10 μM, vs vehicle; for inhibition of α-SMA transcription: quantitative PCR
Protocol: as §1

MV-4-11 cells = experiment: MTT cytotoxicity assay in MV-4-11 cells; type: cell-based, Human; settings: 6 replicates, read-out: IC50 (μM) (mean ± SD)
Protocol: Human MV-4-11 and PL-21 cell lines were used to evaluate fucoxanthin and amarouciaxanthin A effects in combination with the BCL-2 family inhibitor Navitoclax (ABT-263) and Venetoclax (ABT-199). […] For cytotoxicity determination, MV-4-11 cells and PL-21 cells were plated in 96-well microplates at a density of 10^4 cells/well. After 24 hours, different concentration combinations of Navitoclax or Venetoclax and fucoxanthin or amarouciaxanthin A were added. […] DMSO was used as vehicle control. After this period, 50 μL of SDS 10% were added to the negative control wells (0% viability, 100% mortality). Then, culture media was replaced by fresh media with 10 μL of MTT 5 mg/ml in PBS in each well. […] Next, culture media was removed and 100 μL of extraction buffer (SDS, DSA, acetic acid 2%, pH 4.7) were added to each well. […] Finally, plates were read at 570 nm with the spectrophotometer Multiskan Ascent (MTX Lab systems). The potency of each product was determined through the calculation of IC50 (half maximal inhibitory concentration).

PL-21 cells = experiment: MTT cytotoxicity assay in PL-21 cells; type: cell-based, Human; settings: 72 hours, 6 replicates, read-out: IC50 (μM) (mean ± SD)
Protocol: Human MV-4-11 and PL-21 cell lines were used to evaluate fucoxanthin and amarouciaxanthin A effects in combination with the BCL-2 family inhibitor Navitoclax (ABT-263) and Venetoclax (ABT-199). Cells were cultured in RPMI media supplemented with 10% FCS at 37° C. in a humidified 5% CO2-atmosphere, and were consistently free of mycoplasma, as evaluated by PCR. All passages were performed between 80 and 90% of confluence and with viability above 90%.
For cytotoxicity determination, MV-4-11 cells and PL-21 cells were plated in 96-well microplates at a density of 10^4 cells/well. After 24 hours, different concentration combinations of Navitoclax or Venetoclax and fucoxanthin or amarouciaxanthin A were added. Plates were incubated for 72 hours at 37° C. and 5% CO2. DMSO was used as vehicle control. After this period, 50 μL of SDS 10% were added to the negative control wells (0% viability, 100% mortality). Then, culture media was replaced by fresh media with 10 μL of MTT 5 mg/ml in PBS in each well. Plates were incubated for 4 hours at 37° C. and 5% CO2. Next, culture media was removed and 100 μL of extraction buffer (SDS, DSA, acetic acid 2%, pH 4.7) were added to each well. […] Finally, plates were read at 570 nm with the spectrophotometer Multiskan Ascent (MTX Lab systems). The potency of each product was determined through the calculation of IC50 (half maximal inhibitory concentration).

Sk-Mel-103 cells = experiment: MTT cytotoxicity of Navitoclax in Sk-Mel-103 cells after palbociclib/fucoxanthin pretreatment; type: cell-based, human; settings: for IC50: 6 replicates, read-out: IC50 of Navitoclax (μM) (mean ± SD)
Protocol: (§2) Sk-Mel-103 cell line (human skin melanoma) was cultured in DMEM-high glucose supplemented with 10% FCS. All cells were cultured at 37° C. in a humidified 5% CO2-atmosphere and were consistently free of mycoplasma, as evaluated by PCR. All passages were performed between 80 and 90% of confluence and with viability greater than 90%.
10^6 Sk-Mel-103 cells were seeded in 24-well plates. Cultures were incubated with palbociclib (Palbo), as a senescence inductor; fucoxanthin; or a combination of them, as described in Table 4. After 7 days, cultures were treated with different concentrations of the BCL2 inhibitor Navitoclax. The cytotoxicity of each condition was determined through the calculation of IC50 (half maximal inhibitory concentration) by an MTT assay.
For cytotoxicity determination, cells were plated in 96-well microplates at a density of 10^4 cells/well. After the initial treatments described above, different concentrations of Navitoclax were added. Plates were then incubated for 72 hours at 37° C. and 5% CO2. DMSO was used as vehicle control. After this period, 50 μL of SDS 10% were added to the negative control wells (0% viability, 100% mortality). Then, culture media was replaced by fresh media with 10 μL of MTT 5 mg/ml in PBS in each well. Plates were incubated for 4 hours at 37° C. and 5% CO2. Next, culture media was removed and 100 μL of extraction buffer (SDS, DSA, acetic acid 2%, pH 4.7) were added to each well. After incubating plates for 1 hour at 37° C. and 5% CO2, cultures were homogenized. Finally, plates were read at 570 nm with the spectrophotometer Multiskan Ascent (MTX Lab systems). The potency of each product was determined through the calculation of IC50 (half maximal inhibitory concentration).

BJ-11 cells = experiment: Senescence associated β-galactosidase (SA-β-Gal) staining in BJ-11 cells; type: cell-based, human
Protocol: as §2, with “BJ-11” for “Sk-Mel-103”, “(human primary” for “(human”, “fibroblasts)” for “melanoma)”, “MEM” for “DMEM-high glucose”, “FCS plus 2 mM L-glutamine.” for “FCS.”
In order to evaluate the effects of fucoxanthin on senescence, 10^4 BJ-11 cells were seeded in 24-well plates. Cultures were incubated with different concentrations of palbociclib (Palbo) or doxorubicin (Doxo), as senescence inductors, and fucoxanthin (Fuco), as described in Table 6.
Doxorubicin treatments were performed only for 24 hours. After that, doxorubicin was removed and cells were cultured in complete culture medium during the periods of time indicated below. On the other hand, palbociclib was constantly present in the culture medium and added fresh periodically.
Two different approaches were followed: • Approach 1: Fucoxanthin effects on senescence prevention
After 7 days, β-galactosidase activity was determined.
After that, treatment with fucoxanthin was performed for 7 days. At the end of this period […] activity was determined.
After treatments, SA-β-galactosidase staining was used for the determination of senescence-associated β-galactosidase expression in BJ-11 cells. β-galactosidase staining was performed based on manufacturer's recommendations (9860S, Cell Signaling Technology). Growth media was removed from the cells and the plate was rinsed once with PBS. Then, fixative solution was added to each well and cells were allowed to fix for 10-15 min at room temperature. The plate was rinsed twice with PBS before adding β-Galactosidase Staining Solution to each well. Finally, the plate was incubated at 37° C. for 24 h in a dry incubator (no CO2) for preventing changes in pH, which may affect staining results. The amount of cells positive in β-galactosidase activity (stained in blue) was evaluated by manual stained-cell counting.

[2] = test system: IL-1β, IL-6 and IL-8 secretion by SK-Mel-103 cells; experiment: Secreted interleukins (ELISA) in senescent SK-Mel-103 cells; type: cell-based, human; settings: fucoxanthin 4 μM, p value<0.01
Protocol: as §2
10^6 Sk-Mel-103 cells were seeded in 24-well plates. Cultures were incubated with palbociclib or doxorubicin, as senescence inductors; fucoxanthin; or a combination of them, as described in Table 9. After treatments, cells and supernatants were collected by centrifugation and stored at −20° C.
Secretion of IL-1β, IL-6 and IL-8 was quantified in the supernatants by commercial ELISA kits (DY201, DY206, DY208, R&D Systems) following manufacturer's instructions. Obtained values were normalized by total cell protein content in each well at the end of the experiment, quantified by Bradford assay (B6916, Sigma-Aldrich). A second normalization was performed by dividing the secreted interleukin after fucoxanthin incubations by its corresponding control of senescent cells.

[3] = senescence induced with doxorubicin 125 nM, vs senescent cells (FIG. 2)
[4] = senescence induced with palbociclib 1 μM, vs senescent cells (FIG. 1)

CC1=CC(=O)CC(C)(C)[C@@]1(O)CC(=O)/C(C)=C/C=C/C(C)=C/C=C/C=C(C)/C=C/C=C(\C)C=C=C1C(C)(C)C[C@H](O)C[C@@]1(C)O [Amarouciaxanthin A, amarouciaxanthin A]
inhibition of COL1A1 transcription (COL1A1 in LX2 cells; 24 h): around 50%
inhibition of COL1A1 transcription (COL1A1 in LX2 cells; 72 h): around 80%
reduction of collagen expression (protein) (COL1A1 in LX2 cells; 72 h, western blot): around 95%
inhibition of α-SMA transcription ([1]; 24 h): around 80%
inhibition of α-SMA transcription ([1]; 72 h): around 80%
reduction of α-SMA expression at the protein level ([1]; 72 h, western blotting): 95%
IC50 (MV-4-11 cells; 72 hours): 1.45 ± 0.27 µM

CC1(C)CCC(c2ccc(Cl)cc2)=C(CN2CCN(c3ccc(C(=O)NS(=O)(=O)c4ccc(N[C@H](CCN5CCOCC5)CSc5ccccc5)c(S(=O)(=O)C(F)(F)F)c4)cc3)CC2)C1 [Navitoclax, navitoclax]
IC50 (PL-21 cells): 1.22 ± 0.12 µM
IC50 (MV-4-11 cells; 72 hours): 0.14 ± 0.01 µM
IC50 (Sk-Mel-103 cells; Sk-Mel-103 control cells (no pretreatment)): 8.02 ± 1.31 µM
IC50 (Sk-Mel-103 cells; Sk-Mel-103 control cells + fucoxanthin 4 μM pretreatment 7 days): 4.79 ± 0.911 µM
IC50 (Sk-Mel-103 cells; Sk-Mel-103 senescent cells (palbociclib 1 μM) + fucoxanthin 4 μM pretreatment 7 days): 0.055 ± 0.005 µM
IC50 (Sk-Mel-103 cells; Sk-Mel-103 senescent cells (palbociclib 1 μM, 7 days)): 0.136 ± 0.012 µM

CC(=O)c1c(C)c2cnc(Nc3ccc(N4CCNCC4)cn3)nc2n(C2CCCC2)c1=O [Palbociclib, palbociclib, reference compound]
Percentage of cells positive in β-galactosidase activity (BJ-11 cells; Approach 1 (prevention), senescent cells: palbociclib 1 μM alone, 7 days): >98%
Percentage of cells positive in β-galactosidase activity (BJ-11 cells; Approach 2 (reversion), senescent cells: palbociclib 1 μM alone): >95%

COc1cccc2c1C(=O)c1c(O)c3c(c(O)c1C2=O)C[C@@](O)(C(=O)CO)C[C@@H]3O[C@H]1C[C@H](N)[C@H](O)[C@H](C)O1 [Doxorubicin, doxorubicin, reference compound]
Percentage of cells positive in β-galactosidase activity (BJ-11 cells; Approach 1 (prevention), senescent cells: doxorubicin 25 nM (24 hours) alone, 7 days): >80%
Percentage of cells positive in β-galactosidase activity (BJ-11 cells; Approach 2 (reversion), senescent cells: doxorubicin 25 nM alone): >80%

CC1(C)CCC(c2ccc(Cl)cc2)=C(CN2CCN(c3ccc(C(=O)NS(=O)(=O)c4ccc(NCC5CCOCC5)c([N+](=O)[O-])c4)c(Oc4cnc5[nH]ccc5c4)c3)CC2)C1 [Venetoclax, venetoclax, reference compound]
IC50 (MV-4-11 cells; Homo sapiens, MV4-11, 72 hours): 0.0048 µM

fucoxanthin
IC50 (PL-21 cells): 10.5 ± 1.55 µM
IC50 (MV-4-11 cells; 72 hours): 1.34 ± 0.07 µM
effect of fucoxanthin pretreatment on senolytic activity of Navitoclax (Sk-Mel-103 cells; Sk-Mel-103, fucoxanthin 4 μM pretreatment 7 days, summary of Table 5): increased the senolytic activity of Navitoclax
Percentage of cells positive in β-galactosidase activity (BJ-11 cells; Approach 1 (prevention), fucoxanthin 10 μM simultaneously with doxorubicin 25 nM, 7 days): <5%
Percentage of cells positive in β-galactosidase activity (BJ-11 cells; Approach 1 (prevention), fucoxanthin 10 μM simultaneously with palbociclib 1 μM, 7 days): <5%
Percentage of cells positive in β-galactosidase activity (BJ-11 cells; Approach 2 (reversion), doxorubicin 25 nM, 7 days, then fucoxanthin 10 μM for 7 days): <5%
Percentage of cells positive in β-galactosidase activity (BJ-11 cells; Approach 2 (reversion), palbociclib 1 μM for 7 days, then fucoxanthin 10 μM for 7 days): <5%
percentage of senescent cells positive in β-galactosidase activity after treatment (in words) (BJ-11 cells; BJ-11, doxorubicin or palbociclib induced senescence, prevention and reversion, summary of Tables 7 and 8): reduced
secretion of IL-1β [2, 3]: significantly decreased
secretion of IL-6 [2, 3]: significantly decreased
secretion of IL-8 [2, 3]: significantly decreased
secretion of IL-1β [2, 4]: significantly decreased
secretion of IL-6 [2, 4]: significantly decreased
secretion of IL-8 [2, 4]: significantly decreased
